Experimental findings from patent US20140130208A1, “METHODS AND MEANS TO PRODUCE ABIOTIC STRESS TOLERANT PLANTS” (VIB VZW, priority 2011, published 2014) are described below.

The subject of assay [1] is Arabidopsis thaliana third true leaf. Briefly: Growth (kinematic) analysis of the third leaf after transfer of seedlings to mannitol- or ACC-containing medium. Format: in vivo. The procedure:
Arabidopsis seedlings were germinated and grown on nylon meshes overlaying control medium until 9 days after stratification (DAS), when the third true leaf is fully proliferating (Skirycz et al., 2010), and subsequently transferred to control or mannitol-containing medium (FIGS. 1A to 10). Kinematic analysis was performed, whereby leaves were harvested daily throughout development of leaf 3 (9-20 DAS) and based on drawings of the abaxial epidermis cell number, cell area, number of guard cells and cell division and cell expansion rates were calculated (De Veylder et al., 2001). […] Leaf and plant morphology were not altered by mannitol (FIG. 2C). Cell expansion was also affected by stress and the reduced final leaf area was a combination of fewer and smaller cells (FIG. 2D). The stomatal index, which represents the number of stomata as a fraction of the total number of cells, was reduced as well (FIG. 2E). To learn more about the mechanisms underlying the rapid reduction of cell division upon stress onset, we harvested leaf samples daily after transfer. As a measure of cellular differentiation, the ploidy distribution was examined by flow cytometry. […] In stressed leaves, 4C nuclei started to accumulate approximately one day earlier than in controls at the expense of 2C nuclei (FIG. 3A). Analogously, the number of 8C nuclei increased sharply at 14 DAS in stressed leaves, but only at 15 DAS in control samples (FIG. 3A). Again, transfer itself had no effect on ploidy levels (not shown). […] This observation was further investigated with a CYCB1;1:Dbox-GUS reporter line. Staining for CYCB1;1:Dbox-GUS activity visualizes cells at the G2-to-M transition, reflecting mitotic activity (Colón-Carmona et al., 1999). The most apparent differences were observed 48 h after transfer. […] While the relative size of the cell proliferation zone was similar in mannitol-treated leaves, the remaining proliferating cells were found in a dispersed pattern throughout this zone. […] Within a few days after transfer, division rates adapted to the new conditions and compensation effects were observed.
Seedlings of Arabidopsis thaliana (L.) Heyhn. ecotype Columbia-0 (Col-0) were grown in vitro in half-strength Murashige and Skoog medium (Murashige and Skoog, 1962), supplemented with 1% sucrose under a 16-h day (110 μmol m^−2 s^−1) and 8-h night regime. Plates were overlaid with nylon mesh (Prosep, Zaventem, Belgium) of 20 μm pore size to avoid that roots grew into the medium. Depending on the experiment, 32 or 64 seeds were equally distributed on a 150-mm diameter plate. Mutant plants were grown together with their wild-type controls on the same plate.
(§1) At 9 DAS, when the third leaf is fully proliferating, seedlings were transferred to plates containing control medium or medium supplemented with 25 mM mannitol (Sigma-Aldrich) or 5 μM ACC (Sigma-Aldrich) by gently lifting the nylon mesh with forceps. For the CDKA activity assay the transfer was done at 11 DAS; at this stage, the third leaf is still dividing and can be quickly harvested without the need for RNAlater solution (see below) that would inhibit CDKA activity. All transfers were performed 2-3 h into the day.
Growth analysis was performed on the third true leaf harvested at different time points after transfer. After clearing with 70% ethanol, leaves were mounted in lactic acid on microscopic slides. For each experiment, 8-12 leaves were photographed with a binocular, and epidermal cells (40-300) were drawn for four representative leaves with a DMLB microscope (Leica) fitted with a drawing tubus and a differential interference contrast objective. Photographs of leaves and drawings were used to measure leaf and cell area, respectively, with ImageJ v1.41o (NIH; http://rsb.info.nih.gov/ij/), from which the cell numbers were calculated. The stomatal index was defined as the percentage of stomata per all cells. […]

The test system is the same in assay [2]. Briefly: Ploidy analysis of leaf 3 by flow cytometry (endoreduplication onset). It is filed as in vivo. The note with it: transfer at 9 DAS to 25 mM mannitol or 5 μM ACC. The procedure:
Arabidopsis seedlings were germinated and grown on nylon meshes overlaying control medium until 9 days after stratification (DAS), when the third true leaf is fully proliferating (Skirycz et al., 2010), and subsequently transferred to control or mannitol-containing medium (FIGS. 1A to 10). Kinematic analysis was performed, whereby leaves were harvested daily throughout development of leaf 3 (9-20 DAS) and based on drawings of the abaxial epidermis cell number, cell area, number of guard cells and cell division and cell expansion rates were calculated (De Veylder et al., 2001). […] Leaf and plant morphology were not altered by mannitol (FIG. 2C). Cell expansion was also affected by stress and the reduced final leaf area was a combination of fewer and smaller cells (FIG. 2D). The stomatal index, which represents the number of stomata as a fraction of the total number of cells, was reduced as well (FIG. 2E). To learn more about the mechanisms underlying the rapid reduction of cell division upon stress onset, we harvested leaf samples daily after transfer. […]
For flow cytometry analysis, nuclei were extracted by chopping 4-32 leaves with a razor blade in 1 ml of 45 mM MgCl2, 30 mM sodium citrate, 20 mM 3-(N-morpholino)propanesulfonic acid, pH 7, and 1% Triton X-100 (Galbraith et al., 1983). […] The nuclei were analyzed with a CyFlow flow cytometer with the FloMax Software (Partec).

The subject of assay [3] is CYCB1;1:Dbox-GUS reporter line. Description: CYCB1;1:DBox-GUS staining of mitotic activity in leaf 3. Format: in vivo, Arabidopsis thaliana. The settings on record: 48 h after transfer to 25 mM mannitol or 5 μM ACC. The procedure: Arabidopsis seedlings were germinated and grown on nylon meshes overlaying control medium until 9 days after stratification (DAS), when the third true leaf is fully proliferating (Skirycz et al., 2010), and subsequently transferred to control or mannitol-containing medium (FIGS. 1A to 10). Kinematic analysis was performed, whereby leaves were harvested daily throughout development of leaf 3 (9-20 DAS) and based on drawings of the abaxial epidermis cell number, cell area, number of guard cells and cell division and cell expansion rates were calculated (De Veylder et al., 2001). […] Leaf and plant morphology were not altered by mannitol (FIG. 2C). Cell expansion was also affected by stress and the reduced final leaf area was a combination of fewer and smaller cells (FIG. 2D). The stomatal index, which represents the number of stomata as a fraction of the total number of cells, was reduced as well (FIG. 2E). To learn more about the mechanisms underlying the rapid reduction of cell division upon stress onset, we harvested leaf samples daily after transfer. As a measure of cellular differentiation, the ploidy distribution was examined by flow cytometry. […] In stressed leaves, 4C nuclei started to accumulate approximately one day earlier than in controls at the expense of 2C nuclei (FIG. 3A). […]

A further assay relates to CDKA. Description: CDKA activity assay on protein extracted from proliferating third leaves. Format: in vivo, Arabidopsis thaliana. The procedure:
as §1
Total soluble protein was extracted from 50 leaves by adding extraction buffer (Van Leene et al., 2007) to ground samples, followed by two freeze-thaw steps and two centrifugation steps (20,817 g, 10 min, 4° C.), whereby the supernatant was collected each time. Equal amounts of total protein were incubated with p9^CKS1Hs-sepharose beads (De Veylder et al., 1997) and kinase assays were performed as described (De Veylder et al., 1997) with histone H1 as CDK substrate. To correct for the amount of CDKA protein purified by p9^CKS1Hs-sepharose beads, an aliquot of each sample was used for protein gel blot analysis with primary rabbit anti-PSTAIRE antibodies (Santa Cruz) (diluted 1:5000) and a secondary horseradish peroxidase-conjugated donkey anti-rabbit antibodies (GE-Healthcare) (diluted 1:10,000). Proteins were detected by chemiluminescence (Western Lightning Plus ECL, PerkinElmer Life Sciences). CDK activity and CDKA amount were quantified with ImageJ v1.41o. Control samples were arbitrarily set at 100%.

A further assay deals with CDKB2;1 and CYCB1;1. Briefly: Expression of mitotic cell cycle genes CDKB2;1 and CYCB1;1. It is filed as in vivo, Arabidopsis thaliana. The note with it: 5 μM ACC.
Where [4] appears, read: transfer at 9 DAS to 25 mM mannitol or 5 μM ACC, leaf 3.

For 1-aminocyclopropane-1-carboxylate [ACC], the “ACC-related decrease in leaf area” value in assay [1] (ein3.1 and eil1 mutants) is given as “comparable to that of the wild-type”; in assay [1] (etr1.3, ein5.1, mkk9 and ein2.5 mutants, versus wild type) it was “significantly less”. The cell proliferation rates result in assay [1] (setting [4]) is recorded as “rapid reduction of cell proliferation rates”. Also, the stomatal index result in assay [1] (setting [4]) was “not affected”. In addition, in assay [2], the endoreduplication onset entry was “no changes in endoreduplication onset”. Also, the “number of mitotic cells (CYCB1;1:DBox-GUS activity)” value in assay [3] was “no changes in the number of mitotic cells”. For the same substance, the CDKA activity reduced result with CDKA (ACC treatment, etr1.3 and ein5.1 mutants) was “not”. Moreover, the CDKA activity entry in the assay on CDKA (ACC treatment, wild-type and ein3.1) is reported as “reduced”; in the assay on CDKA (wild type, 10 and 24 h after transfer to 25 mM mannitol or 5 μM ACC), “decreased as early as 10 h after transfer”. Also, in the assay with CDKB2;1 and CYCB1;1, the “expression of mitotic cell cycle genes CDKB2;1 and CYCB1;1” value is “no difference”.
